For one series, the target named is GluA1flip (Rattus norvegicus, UniProt P19490). Briefly: Subunit selectivity, whole-cell recording, GluA1. Conditions: closed- and open-channel glutamate concentrations. The format is cell-based.
Another series deals with GluA2Qflip AMPA receptor (Rattus norvegicus, UniProt P19491). Conditions: for Ki: from A/A(I) vs inhibitor concentration; for inhibition by A/A(I), ratio of whole-cell current amplitude in absence and presence of aptamer: 1 μM aptamer (FIG. 3, FIG. 5).
For another series, the target named is GluA2Qflip receptor (Rattus norvegicus, UniProt P19491). Briefly: Homologous competition binding assay (cold vs hot aptamer). Conditions: for binding to the receptor in the presence of NBQX: competitive inhibitor, data not shown; for Kd: triplicate data sets.
Description: (§1) In fact, in a homologous competition binding experiment (42) in which the non-radiolabeled aptamer (or cold aptamer) was used to compete against the same, but radiolabeled, aptamer (or hot aptamer), AF44 bound to not only the closed-channel conformation (i.e., the unliganded, closed-channel receptor form) but also the open-channel conformation (FIG. 10). […] The binding results were consistent with noncompetitive sites, because these sites were supposed to be accessible through both the closed- and the open-channel conformations. […] These sites were noncompetitive type because binding to the receptor by either AF44 or AF42 or the full length AF1422 was unaffected in the presence of NBQX, a classic competitive inhibitor.
as §1, with “inhibitor (data not shown).” for “inhibitor.”

[1] abbreviates: open-channel GluA2Qflip, read-out: Kd, open-channel conformation.
The mark [2] stands for this setting: unliganded, closed-channel GluA2Qflip, read-out: Kd, closed-channel conformation.

This is an account of results in patent publication US9200286B2 (THE RESEARCH FOUNDATION FOR THE STATE UNIVERSITY OF NEW YORK, priority 2010, dated 2015).

Read-outs that look alike come from different tables or passages of the source.

The Ki is a measure of affinity in units of concentration, obtained from inhibition or displacement. Broadly, the Kd is the constant that tells how readily two partners part at equilibrium.

Chain of GluA2Qflip receptor (P19491 22-883 isoform P19491-2 limits assumed): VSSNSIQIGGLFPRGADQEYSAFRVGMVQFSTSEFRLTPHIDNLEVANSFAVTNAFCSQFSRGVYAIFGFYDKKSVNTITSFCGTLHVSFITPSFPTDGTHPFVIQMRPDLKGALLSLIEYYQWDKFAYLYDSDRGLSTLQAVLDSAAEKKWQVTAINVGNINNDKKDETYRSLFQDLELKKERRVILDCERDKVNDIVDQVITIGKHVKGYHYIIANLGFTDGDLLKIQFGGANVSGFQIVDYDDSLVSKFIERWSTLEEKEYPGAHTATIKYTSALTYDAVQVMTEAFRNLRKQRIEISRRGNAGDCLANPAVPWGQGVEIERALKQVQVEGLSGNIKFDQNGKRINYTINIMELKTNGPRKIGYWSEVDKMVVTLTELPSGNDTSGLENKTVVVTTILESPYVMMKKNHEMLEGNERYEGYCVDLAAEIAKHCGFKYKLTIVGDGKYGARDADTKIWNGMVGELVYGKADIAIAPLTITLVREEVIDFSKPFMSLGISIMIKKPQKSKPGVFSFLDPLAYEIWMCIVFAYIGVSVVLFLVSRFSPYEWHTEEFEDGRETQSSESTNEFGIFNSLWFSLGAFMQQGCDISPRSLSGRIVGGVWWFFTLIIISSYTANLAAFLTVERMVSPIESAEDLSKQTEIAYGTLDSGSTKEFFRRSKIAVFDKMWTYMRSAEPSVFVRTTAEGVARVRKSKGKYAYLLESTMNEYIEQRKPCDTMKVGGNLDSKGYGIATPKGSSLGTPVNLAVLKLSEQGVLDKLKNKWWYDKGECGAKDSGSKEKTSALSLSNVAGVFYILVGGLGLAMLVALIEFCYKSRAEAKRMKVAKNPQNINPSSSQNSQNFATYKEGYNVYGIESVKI
Chain of GluA2Qflip AMPA receptor (P19491 22-883 isoform P19491-2 limits assumed): as above
Chain of GluA1flip (P19490 19-907 isoform P19490-2 limits assumed): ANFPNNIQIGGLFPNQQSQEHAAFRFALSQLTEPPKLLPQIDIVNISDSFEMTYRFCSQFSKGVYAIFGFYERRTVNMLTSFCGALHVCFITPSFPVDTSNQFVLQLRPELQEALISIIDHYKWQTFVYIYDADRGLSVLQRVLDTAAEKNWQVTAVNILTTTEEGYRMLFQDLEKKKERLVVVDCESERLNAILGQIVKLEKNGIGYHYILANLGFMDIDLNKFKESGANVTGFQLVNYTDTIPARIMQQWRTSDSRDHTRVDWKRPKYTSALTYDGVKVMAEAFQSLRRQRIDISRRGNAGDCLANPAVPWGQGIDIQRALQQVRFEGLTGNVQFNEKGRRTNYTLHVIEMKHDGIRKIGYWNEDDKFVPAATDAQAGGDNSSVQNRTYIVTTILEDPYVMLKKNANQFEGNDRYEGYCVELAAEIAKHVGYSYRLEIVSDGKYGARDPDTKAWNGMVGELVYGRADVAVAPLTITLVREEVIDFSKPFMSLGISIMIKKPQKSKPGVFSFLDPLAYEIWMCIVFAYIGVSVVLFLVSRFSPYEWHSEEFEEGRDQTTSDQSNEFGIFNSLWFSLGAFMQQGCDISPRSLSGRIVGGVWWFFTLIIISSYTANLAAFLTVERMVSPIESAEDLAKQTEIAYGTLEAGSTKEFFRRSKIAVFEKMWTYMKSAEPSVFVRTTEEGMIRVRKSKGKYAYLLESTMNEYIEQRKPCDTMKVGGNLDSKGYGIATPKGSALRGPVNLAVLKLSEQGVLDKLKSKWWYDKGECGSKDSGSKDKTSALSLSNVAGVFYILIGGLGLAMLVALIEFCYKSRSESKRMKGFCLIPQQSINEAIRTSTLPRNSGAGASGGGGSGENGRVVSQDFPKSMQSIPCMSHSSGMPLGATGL
Description for GluA1flip: The subunit selectivity of AF44/AF42 was assessed with individual subunits of AMPA, kainate and NMDA receptors expressed in HEK-293 cells, and was represented by A/A(I) value collected from whole-cell recording (FIG. 8A).
All of the receptors were transiently expressed in HEK-2935 cell. HEK-293S cells were maintained in Dulbecco's modified Eagle's medium (DMEM) supplemented with 10% fetal bovine serum and 1% penicillin in a 37° C., 5% CO2, humidified incubator. Receptors were transiently transfected by using calcium phosphate or lipofectamine 2000 (Invitrogen). The DNA plasmids encoding green fluorescent protein (GFP) and T-antigen (TAg) were cotransfected in HEK-293S cells. GFP was used as a transfection marker for cell recording, and TAg was cotransfected to potentiate the receptor expression at the single-cell level (51). […]
For recording of the NMDA channels, the intracellular solution contained (in mM) 140 CsCl, 1 MgCl2, 0.1 EGTA, and 10 HEPES (pH 7.2 adjusted by Mg(OH)2), while the extracellular solution contained (in mM) 135 NaCl, 5.4 KCl, 1.8 CaCl2, 10 glucose and 5 HEPES (pH 7.2 adjusted by NaOH). […] The whole-cell current was recorded using an Axopatch-200B amplifier at a cutoff frequency of 2-20 kHz by a built-in, eight-pole Bessel filter and digitized at 5-50 kHz sampling frequency using a Digidata 1322A from Axon Instruments (Molecular Devices, Sunnyvale, Calif.). […]
Description for GluA2Qflip AMPA receptor: The putative inhibitory property of the four sequences was then functionally tested by the use of whole-cell current recording with GluA2Qflip expressed in HEK-293 cells. […] The current was recorded at −60 mV, pH 7.4 and 22° C. with the same HEK-293 cells expressing GluA2Qflip that were used for selection.
The procedure for whole-cell current recording used to assay putative aptamers is known in the art. For the present invention, all recordings were at −60 mV and 22° C. The recording electrode was filled with the buffer (in mM): 110 CsF, 30 CsCl, 4 NaCl, 0.5 CaCl2, 5 EGTA, and 10 HEPES (pH 7.4 adjusted by CsOH). The extracellular buffer composition used is described supra. All other buffers used were previously described. The whole-cell current was recorded using an Axopatch 200B amplifier at a cutoff frequency of 2-20 kHz by a built-in, four-pole Bessel filter and digitized at 5-50 kHz sampling frequency using a Digidata 1322A (Molecular Devices). pClamp 8 (Molecular Devices, Sunnyvale Calif.) was used for data acquisition.
Using whole-cell recording, the putative inhibitory property for each aptamer was tested with HEK 293 cells expressing GluA2Qflip receptors and expressed as the ratio of the whole-cell current amplitude in the absence and presence of an aptamer, that is, A/A(I). The current was recorded at −60 mV, pH 7.4 and 22° C. with the same HEK-293 cell expressing GluA2Qflip.
Selected RNA sequences were assayed using whole-cell current recording with GluA2Qflip. […] The third round of the library or “pool 3” at 1 μM was used as a control. The ‘*’ indicates P≦0.05 from the two-tailed Student's t test (H0: μ=μ0=1, 1 being the theoretical value of no inhibition, marked as the dashed line).
The ratio of the whole-cell current amplitude in the absence and presence of a putative aptamer or A/A(I) as a function of aptamer concentration was used to independently measure inhibition constants (29), as illustrated in Equations 7a and 7b (29). These equations were derived based on the same general mechanism of channel opening described earlier. KI, app is the apparent inhibition constant for the inhibitor;
Thus the inhibition constant for the closed-channel conformation or state was determined from A/A(I) vs. inhibitor concentration by Equations 7a and 7b. Likewise, at a saturating ligand concentration (i.e., L>>K1), the majority of the receptors were in the open-channel state. Thus the inhibition constant for the open-channel state was determined.
The original cDNAs in pBlueScript encoding rat GluA1, 2 and 3 AMPA receptors and GluK2 kainate receptor were kindly provided by Steve Heinemann. The GluA4 DNA plasmid was kindly provided by Peter Seeburg. The GluK1 plasmid was kindly provided by Geoffrey Swanson. The cDNAs of all three NMDA receptor subunits were gifts from John Woodward. All DNA plasmids were propagated using Escherichia coli host (DH5α) and purified using QIAGEN DNA purification kits.
All of the receptors were transiently expressed in HEK-2935 cell. HEK-293S cells were maintained in Dulbecco's modified Eagle's medium (DMEM) supplemented with 10% fetal bovine serum and 1% penicillin in a 37° C., 5% CO2, humidified incubator. Receptors were transiently transfected by using calcium phosphate or lipofectamine 2000 (Invitrogen). The DNA plasmids encoding green fluorescent protein (GFP) and T-antigen (TAg) were cotransfected in HEK-293S cells. GFP was used as a transfection marker for cell recording, and TAg was cotransfected to potentiate the receptor expression at the single-cell level (51). Transfected cells were allowed to grow for 48 hour before they were used for recording.
The procedure for whole-cell current recording to assay the inhibitory property of an RNA aptamer is known to those of skill in the art and has been previously described (47). […] The extracellular buffer composition is described above (see “Receptor Preparation”).

As for `CNC(=O)N1N=C(c2ccc(N)cc2)c2cc3c(cc2CC1C)OCO3` (stereo not shown) [BDZ-f, 1-(4-aminophenyl)-3-methylcarbamoyl-4-methyl-7,8-methylenedioxy-3,4-dihydro-5H-2,3-benzodiazepine, reference compound], the “effect on GluA1, A/A(I)” value at GluA1flip is on record as “inhibited”. Besides, the “inhibition of the non-desensitizing phase of the receptor response” value on GluA2Qflip AMPA receptor (0.1 mM glutamate, AF44/AF42 up to 12.5 μM, BDZ-f up to 20 μM) is “uninhibited”. Further, on GluA2Qflip AMPA receptor (FIG. 8A/8B, two glutamate concentrations), the “inhibition of GluA2Qflip in the subunit selectivity test, A/A(I)” value is reported as “inhibited”. In addition, the Ki at GluA2Qflip AMPA receptor (KI for the closed-channel conformation, 100 μM glutamate, -60 mV, 22 °C) stood at 3800 ± 400 nM; on GluA2Qflip AMPA receptor (KI for the open-channel conformation, 3 mM glutamate), 5400 ± 800 nM.

Take “AF20: truncated AF1422 containing only the 5' stem loop, SEQ ID NO: 7 (GGGAGAAUUCAACUGCCAUC; listed as RNA, chemistry not fully specified)”: the “inhibition by A/A(I), ratio of whole-cell current amplitude in absence and presence of aptamer” value (“inhibition by A/A(I), ratio” below) with GluA2Qflip AMPA receptor (100 μM glutamate) is “not sufficient to act either alone as an inhibitor or together with AF42 as an inhibitory pair”.

With “AF38: AF42 with terminal loop removed, SEQ ID NO: 6 (GGGUCGUUAGAGCAUCAGUACACCAACGGUGCGAGCCC; listed as RNA, chemistry not fully specified)”, the “inhibition by A/A(I), ratio” value with GluA2Qflip AMPA receptor (100 μM glutamate) is listed as “total loss of function”.

In the case of “AF42: 42-nucleotide RNA truncated from AF1422, SEQ ID NO: 5 (GGGAACGGUGCCAGUCCGAAACGGAUCGUUAGAGCAUCAGUA; listed as RNA, chemistry not given here)”, the “binding to the receptor in the presence of NBQX” value (“binding to the receptor” for short) with GluA2Qflip receptor was “unaffected”. The figures for the Kd with GluA2Qflip receptor (setting [1]) and with GluA2Qflip receptor (setting [2]) were 44 ± 11 nM and 57 ± 21 nM, respectively. Also, in the series with GluA2Qflip AMPA receptor (100 μM glutamate), the “inhibition by A/A(I), ratio” value is on record as “did not render any inhibition”.

As to “AF44: 44-nucleotide RNA truncated from AF1422, G22 replaced with A22, SEQ ID NO: 4 (GGGAGAAUUCAACUGCCACGGAUAAUAGCCAAUACUACAACCGU; listed as RNA, chemistry not given here)”, the “binding to the receptor” value with GluA2Qflip receptor was “unaffected”. Moreover, the figures for the Kd with GluA2Qflip receptor (setting [1]) and in the series with GluA2Qflip receptor (setting [2]) were 48 ± 13 nM and 44 ± 18 nM, respectively. Moreover, the “inhibition by A/A(I), ratio” value with GluA2Qflip AMPA receptor (100 μM glutamate) is reported as “did not render any inhibition”.

B1: AF1422: RNA aptamer, SEQ ID NO: 1, most enriched SELEX sequence binding closed-channel GluA2Qflip (nucleic acid)
chain: GGGAGAAUUCAACUGCCAUCUAGGCAGAAGUGUAAUAGCCAACGGUGCCAGUCCGAAACGGAUCGUUAGAGCAUCAGUACUACAAGCUUCUGGACUCGGU
modifications: listed as RNA, chemistry not given here
Regarding B1, the “binding to the receptor” value in the series with GluA2Qflip receptor was “unaffected”. Besides, the “inhibition by A/A(I), ratio” value in the series with GluA2Qflip AMPA receptor (100 μM glutamate) is on record as “one of the most potent inhibitors”. For the same molecule, the “inhibition of closed-channel versus open-channel conformation” value in the series with GluA2Qflip AMPA receptor (low (100 μM) vs high (3 mM) glutamate) was “inhibited the closed-channel, preferentially over the open-channel”.

B2: AF78: truncated sequence of AF1422, SEQ ID NO: 3, lacking the 5' stem-loop (nucleic acid)
chain: GGGAGCCAGAAGUGUAAUAGCCAACGGUGCCAGUCCGAAACGGAUCGUUAGAGCAUCAGUACUACAAGCUUCUGGACU
modifications: listed as RNA, chemistry not fully specified
For the molecule B2, in the series with GluA2Qflip AMPA receptor (100 μM glutamate), the “inhibition by A/A(I), ratio” value is “non-inhibitory”.
